Laboratory results taken from patent US6828315B1, “1-Amino triazoloc4,3-a! quinazoline-5-ones and/or -5-thiones inhibiting phosphodiesterase IV” (Warner-Lambert LLC, priority 1999, dated 2004).

| Compound | melting point [°C] |
| --- | --- |
| O=c1nc2n(Cc3ccccc3)nc(N3CCCCCC3)n2c2ccc(Cl)cc12 [Compound 111, 1-(azepan-1-yl)-7-chloro-3-benzyl-3H-[1,2,4]triazolo[4,3-a]-quinazolin-5-one] | 148 |
| O=c1nc2n(Cc3ccc(F)cc3)nc(N3CCCC3)n2c2ccc(Br)cc12 [Compound 143, 7-bromo-3-(4-fluorobenzyl)-1-(pyrrolidin-1-yl)-3H-[1,2,4]triazolo[4,3-a]quinazolin-5-one] | 233 |
| COc1cccc(Cn2nc(N3CCCCCC3)n3c4ccc(Cl)cc4c(=O)nc23)c1 [Compound 121, 1-(azepan-1-yl)-7-chloro-3-(3-methoxybenzyl)-3H-[1,2,4]triazolo[4,3-a]quinazolin-5-one] | 163 |
| COc1cc(Cn2nc(N3CCCC3)n3c4ccc(Br)cc4c(=O)nc23)cc(OC)c1OC [Compound 151, 7-bromo-1-(pyrrolidin-1-yl)-3-(3,4,5-trimethoxybenzyl)-3H-[1,2,4]triazolo[4,3-a]quinazolin-5-one] | 199 to 201 |
| O=c1nc2n(Cc3ccc(F)cc3)nc(N3CCCCCC3)n2c2ccc(Br)cc12 [Compound 135, 1-(azepan-1-yl)-7-bromo-3-(4-fluorobenzyl)-3H-[1,2,4]triazolo[4,3-a]quinazolin-5-one] | 216 |
| N#Cc1ccc(Cn2c(=O)c3cc(N)ccc3n3c(N4CCCC4)nnc23)cc1 [Compound 226, 4-(7-Amino-5-oxo-1-pyrrolidin-1-yl-5H-[1,2,4]triazolo[4,3-a]quinazolin-4-ylmethyl)-benzonitrile] | 152 |
| COc1ccc(Cn2nc(N3CCCCCC3)n3c4ccc(Cl)cc4c(=O)nc23)cc1 [Compound 122, 1-(azepan-1-yl)-7-chloro-3-(4-methoxybenzyl)-3H-[1,2,4]triazolo[4,3-a]quinazolin-5-one] | 164 to 165 |
| CC(=O)Oc1ccc(Cn2nc(N3CCCC3)n3c4ccc(Br)cc4c(=O)nc23)cc1 [Compound 147, Acetic acid 4-(7-bromo-5-oxo-1-pyrrolidin-1-yl-5H-[1,2,4]triazolo[4,3-a]quinazolin-3-ylmethyl)phenyl ester] | 199 |
| O=c1c2cc(Br)ccc2n2c(N3CCC(O)C3)nnc2n1Cc1ccccc1 (stereo not drawn) [Compound 187, 4-Benzyl-7-bromo-1-(3-hydroxy-pyrrolidin-1-yl)-4H-[1,2,4]triazolo[4,3-a]quinazolin-5-one] | 176 |
| Cn1c(=O)c2cc(F)ccc2n2c(N3CCCCCC3)nnc12 [Compound 212, 1-(azepan-1-yl)-7-fluoro-4-methyl-4H-[1,2,4]triazolo[4,3-a]-quinazolin-5-one] | 136 |
| COc1ccc(Cn2nc(N3CCCCCC3)n3c4ccc(Br)cc4c(=O)nc23)cc1OC [Compound 137, 1-(azepan-1-yl)-7-bromo-3-(3,4dimethoxybenzyl)-3H-[1,2,4]triazolo[4,3-a]quinazolin-5-one] | 174 |
| O=c1nc2n(Cc3ccc(Cl)cc3)nc(N3CCCCCC3)n2c2ccc(Cl)cc12 [Compound 115, 1-(azepan-1-yl)-7-chloro-3-(4-chlorobenzyl)-3H-[1,2,4]triazolo[4,3-a]quinazolin-5-one] | 245 |
| Cn1c(=O)c2cc(Cl)ccc2n2c(N3CCCc4ccccc43)nnc12 [Compound 208, 7-chloro-1-(3,4-dihydro-2H-quinolin-1-yl)-4-methyl-4H-[1,2,4]triazolo[4,3-a]quinazolin-5-one] | 204 |
| COc1ccc(CCn2c(=O)c3cc(Cl)ccc3n3c(N4CCCCCC4)nnc23)cc1 [Compound 25, 1-(azepan-1-yl)-7-chloro-4-[2-(4-methoxyphenyl)ethyl]-4H-[1,2,4]triazolo[4,3-a]quinazolin-5-one] | 136 |
| COC(=O)C(c1ccccc1)n1nc(N2CCCC2)n2c3ccc(Br)cc3c(=O)nc12 (stereo not drawn) [Compound 154, (7-Bromo-5oxo-1-pyrrolidin-1-yl-5H-[1,2,4]triazolo[4,3-a]quinazolin-3-yl)-phenyl-acetic acid methyl ester] | 187 |
| O=c1nc2n(C/C=C/c3ccccc3)nc(N3CCCCCC3)n2c2ccc(Br)cc12 [Compound 140, 1-Azepan-1-yl-7-bromo-3-((E)-3-phenyl-allyl)-3H-[1,2,4]triazolo(4,3-a]quinazolin-5-one] | 198 |
| COC(=O)c1cc(C(=O)Cn2nc(N3CCCCCC3)n3c4ccc(Cl)cc4c(=O)nc23)ccc1OC [Compound 133, 5-[(1-(azepan-1-yl)-7-chloro-5-oxo-5H-[1,2,4]triazolo[4,3-a]-quinazolin-3-yl)acetyl]-2-methoxybenzoic acid methyl ester] | 136 |
| O=c1c2ccccc2n2c(N3CCCCCC3)nnc2n1CC=Cc1ccccc1 [Compound 6, 1-Azepan-1-yl-4-(3-phenyl-allyl)-4H-[1,2,4]triazolo[4,3-a]quinazolin-5-one] | 144 |
| O=c1nc2n(Cc3ccc(C(F)(F)F)cc3)nc(N3CCCCCC3)n2c2ccc(Cl)cc12 [Compound 118, 1-(azepan-1-yl)-7-chloro-3-(4-(trifluoromethyl)benzyl)-3H-[1,2,4]triazolo[4,3-a]quinazolin-5-one] | 232 |
| O=C(Cn1c(=O)c2cc(Cl)ccc2n2c(N3CCCCCC3)nnc12)c1ccc(Cl)cc1 [Compound 29, 1-(azepan-1-yl)-7-chloro-4[2-(4-chlorophenyl)-2-oxoethyl]-4H-[1,2,4]triazolo[4,3-a]quinazolin-5-one] | 190 |
| CN(C)c1nnc2n(Cc3ccc(C#N)cc3)c(=O)c3cc(C#N)ccc3n12 [Compound 107, 4-(4-Cyano-benzyl)-1-dimethylamino-5-oxo-4,5-dihydro-[1,2,4]triazolo[4,3-a]quinazoline-7-carbonitrile] | 147 to 149 |
| Cn1c(=O)c2cc(Cl)ccc2n2c(N3CCCCCCC3)nnc12 [Compound 207, 1-(azocan-1-yl)-7-chloro-4methyl-4H-[1,2,4]triazolo[4,3-a]-quinazolin-5-one] | 123 to 125 |
| O=C(Cn1nc(N2CCCCCC2)n2c3ccc(Cl)cc3c(=O)nc12)c1ccccc1 [Compound 130, 1-Azepan-1-yl-7-chloro-3-(2-oxo-2-phenyl-ethyl)3H-[1,2,4]triazolo[4,3-a]quinazolin-5-one] | 230 to 232 |

Next, values leading:

| melting point [°C] | Compound |
| --- | --- |
| 160 to 162 | O=c1c2cc(Cl)ccc2n2c(N3CCCCCC3)nnc2n1Cc1ccccc1Cl [Compound 9, 1-(azepan-1-yl)-7-chloro-4-(2-chlorobenzyl)-4H-[1,2,4]triazolo[4,3-a]quinazolin-5-one] |
| 180 | O=c1c2cc(Br)ccc2n2c(N3CCCCCC3)nnc2n1Cc1cccnc1 [Compound 36, 1-(azepan-1-yl)-7-bromo-4-(3-pyridinylmethyl)-4H-[1,2,4]triazolo[4,3-a]quinazolin-5-one] |
| 98 to 100 | COc1ccccc1Cn1c(=O)c2cc(Cl)ccc2n2c(N3CCCCCC3)nnc12 [Compound 16, 1-(azepan-1-yl)-7-chloro-4-(2-methoxybenzyl)-4H-[1,2,4]triazolo[4,3-a]quinazolin-5-one] |
| 194 | O=c1c2cc(Br)ccc2n2c(N3CCCC3)nnc2n1Cc1ccc2c(c1)OCO2 (hydrate or solvate) [Compound 53, 4-Benzo[1,3]dioxol-5-ylmethyl-7-bromo-1-pyrrolidin-1-yl-4H-[1,2,4]triazolo[4,3-a]quinazolin-5-one] |
| 230 | CN1CCN(c2nnc3n(Cc4ccccc4)c(=O)c4cc(Br)ccc4n23)CC1 [Compound 182, 4-Benzyl-7-bromo-1-(4-methyl-piperazin-1-yl)-4H-[1,2,4]triazolo[4,3-a]quinazolin-5-one] |
| 174 | Cn1c(=O)c2cc(Br)ccc2n2c(N3CCCCCC3)nnc12 [Compound 177, 1-(azepan-1-yl)-7-bromo-4-methyl-4H-[1,2,4]triazolo[4,3-a]-quinazolin-5-one] |
| 192 | O=c1nc2n(Cc3cccnc3)nc(N3CCCCCC3)n2c2ccc(Br)cc12 [Compound 139, 1-(azepan-1-yl)-7-bromo-3-(pyridin-3-ylmethyl)-3H-[1,2,4]triazolo[4,3-a]quinazolin-5-one] |
| 178 | O=c1c2cc(Cl)ccc2n2c(N3CCCCC3)nnc2n1Cc1ccccc1 [Compound 174, 4-benzyl-7-chloro-1-(piperidin-1-yl)-4H-[1,2,4]triazolo[4,3-a]-quinazolin-5-one] |
| 171 | O=c1c2cc(Br)ccc2n2c(N3CCCC3)nnc2n1CCOc1ccccc1 [Compound 71, 7-Bromo-4-(2-phenoxy-ethyl)-1-pyrrolidin-1-yl-4H-[1,2,4]triazolo[4,3-a]quinazolin-5-one] |
| 135 | CCCCn1c(=O)c2cc(Br)ccc2n2c(N3CCCC3)nnc12 [Compound 66, 7-Bromo-4-butyl-1-pyrrolidin-1-yl-4H-[1,2,4]triazolo[4,3-a]quinazolin-5-one] |
| 155 | O=c1c2cc(Br)ccc2n2c(N3CCCC3)nnc2n1CC1CCCC1 [Compound 65, 7-Bromo-4-cyclopentylmethyl-1-pyrrolidin-1-yl-4H-[1,2,4]triazolo[4,3-a]quinazolin-5-one] |
| 153 | COc1ccc2c(c1)c(=O)n(Cc1ccccc1)c1nnc(N3CCCCCC3)n21 [Compound 195, 1-Azepan-1-yl-4-benzyl-7-methoxy-4H-[1,2,4]triazolo[4,3-a]quinazolin-5-one] |
| 158 | O=c1c2cc(Br)ccc2n2c(N3CCCCCC3)nnc2n1Cc1ccc(F)cc1 [Compound 33, 1-Azepan-1-yl-7-bromo-4-(4-fluoro-benzyl)-4H-[1,2,4]triazolo[4,3-a]quinazolin-5-one] |
